Laboratory results as given in patent publication US9261497B2, “Method of treating cancer with modulators of SCFSkp2” (New York University, priority 2012, dated 2016).

Columns and labels:
Q52L-Cks1 mutant = biological target: T1, Q52L-Cks1 mutant (Homo sapiens, UniProt P61024+Q13309, Q52L); experiment: In vitro ubiquitylation assay with Q52L-Cks1 mutant; type: biochemical; conditions: 50 μM compound
T1 construct: made in house; host or cells: cell-free: rabbit reticulocyte lysate (TNT T7 Coupled Reticulocyte Lysate System, Promega) from pcDNA3.1 plasmids
Source text: To interrogate the compound-contacting residues on the Skp2-Cks1 interface, mutants of Skp2 and Cks1 were designed based on the in silico dockings. The predicted electrostatic interactions between the positive charge on the NH2 side group in Q52-Cks1 with the COOH-group in C1 and C16 should be lost when mutated to a neutral-charge leucine (FIG. 7B). […] This confirms that the Q52-Cks1 residue is important for only C1 and C16 activity, as predicted by the in silico dockings. […] The Skp2-R294A and the Cks1-R44A/H mutants lacked ubiquitylation activity (FIG. 7C) preventing the interrogation of these residues' contribution to the activity of C2 and C20. […] Thus, the predicted three-dimensional mode of interaction of the compounds with Skp2-Cks1 was validated at a chemical and protein level.
(§1) In vitro reconstituted assays were performed as previously described (Dorrello et al., “S6K1- and betaTRCP-mediated Degradation of PDCD4 Promotes Protein Translation and Cell Growth,” Science 314:467-471 (2006), which is hereby incorporated by reference in their entirety) with the exceptions of the use of (1) unlabeled proteins (wild-type and mutant Skp2 and Cks1, p27, Flag-βTrCP, and HA-PDCD4) generated by in vitro transcription-translation (TNT T7 Coupled Reticulocyte Lysate System, Promega); (2) chain elongation with non-methylated ubiquitin; and (3) immunoblotting to detect poly-ubiquitylation. The following reagents were obtained from Boston Biochem: UBE1, His-UbcH3, His-UbcH5c, Ubiquitin, and Ubiquitin Aldehyde. Additional reagents include CDK2/CyclinE1 (Sigma-Aldrich), S6K (Invitrogen), Okadaic acid (Sigma), and DMSO (Sigma-Aldrich). For ubiquitin charging, UBE1 (100 nM) and His-UbcH3 (10 ng/μl) were incubated with ubiquitin (2.5 μg/μl), ATP (2 mM), and 10 μM […] of inhibitors or Vehicle control for 60 min at 30° C. Reactions were stopped in nondenaturing 2× Sample Buffer, with the addition of 10% Beta-mercaptoethanol as indicated, and analyzed by Western blotting.

SCF-Skp2 (Skp2-Cks1) = biological target: T2, SCF-Skp2 (Skp2-Cks1) (Homo sapiens, UniProt P61024+Q13309); experiment: In vitro ubiquitylation assay, Skp2-mediated p27 ubiquitylation (Wild-Type Cks1); type: biochemical; conditions: 50 μM compound, immunoblot for p27-(Ub)n
T2 construct: made in house; host or cells: cell-free: rabbit reticulocyte lysate (TNT T7 Coupled Reticulocyte Lysate System, Promega) from pcDNA3.1 plasmids
Procedure: The 96 hits were tested in an in vitro ubiquitylation assay driven by in vitro transcribed/translated Skp2, Cks1, and p27 (Sitry et al., “Three Different Binding Sites of Cks1 are Required for p27-ubiquitin Ligation,” J. Biol. Chem. 277:42233-42240 (2002)). Assay sensitivity was established for various criteria (FIG. 1B): Enhanced ubiquitylation with Cks1 (lane 2), kinase activity requirement (lane 3), and responsiveness to known inhibitors of Cullin (lane 5) or Cdk2 (lane 6) activity (Meijer et al., “Biochemical and Cellular Effects of Roscovitine, a Potent and Selective Inhibitor of the Cyclin-dependent Kinases cdc2, cdk2 and cdk5,” Eur. J. Biochem. 243:527-536 (1997); Soucy et al., “An Inhibitor of NEDD8-activating Enzyme as a New Approach to Treat Cancer,” Nature 458:732-736 (2009), which are hereby incorporated by reference in their entirety). Compounds showing at least 50% inhibition of Skp2-mediated p27 ubiquitylation (FIG. 1C) were counter-screened for inactivity against two anti-target E3 ligases: MDM2 and SCF-βTrCP (FIGS. 6A-B). Compounds C1 and C2 were identified from the primary VLS and C16 and C20 were identified from a second VLS (FIG. 2).
as §1

CyclinE/CDK2 = biological target: T3, CyclinE/CDK2 (Homo sapiens, UniProt P24941); experiment: CyclinE/CDK2 kinase assay (phospho-T187 p27); type: biochemical; conditions: 50 μM inhibitor
T3 construct: purchased Sigma-Aldrich
Procedure: In vitro ubiquitylation assays were incubated with anti-HA affinity matrix (Roche) in IP buffer (50 mM Tris pH 7.6, 150 mM NaCl, 0.1% NP40, and Roche Complete EDTA-free protease tablet) for 16 h at 4° C. Beads were washed 3× with IP buffer and eluted with 2×SDS Sample Buffer (Boston Bioproducts) and 10% Beta-mercaptoethanol. For binding without ubiquitylation, HA-Skp2 IVT (10 μl) and Cks1 IVT (10 μl) were preincubated with anti-HA affinity matrix in IP buffer for 2 hours, with the addition of p27 kinase reaction (10 μl) for another 16 h incubation at 4° C. All reactions were analyzed after SDS/PAGE by western blotting. Where indicated, Skp2 and Cks1 were pretreated with 10 μM inhibitors for 30 minutes. Kinase reactions were performed with p27 IVT (10 μl) and 0.5 μg/ul CyclinE/CDK2 in kinase buffer (50 mM Tris HCL pH 7.5, 10 mM MgCl2, 2 mM ATP, 2.5 μM Okadaic Acid, and 0.6 mM DTT) at 30° C. for 1 h.

SCF-βTrCP = experiment: β-TrCP PDCD4 in vitro ubiquitylation counter-screen; type: biochemical; conditions: 50 μM inhibitor
Procedure: as §1

501 Mel cells = experiment: Cell cycle FACS analysis, 501 Mel; type: cell-based, human; conditions: shEmpty 501 Mel; 10 μM for 16 hours
Procedure: Whole cell extracts were prepared and immunoblotted as previously described Dorrello et al., “S6K1- and betaTRCP-mediated Degradation of PDCD4 Promotes Protein Translation and Cell Growth,” Science 314:467-471 (2006), which is hereby incorporated by reference in its entirety. For knockdown of Skp2 or p27, shRNAs were induced with 2 ng/ml doxycycline for 48 hours, with the last 16 hours co-treated with 0.1% Vehicle or 10 μM inhibitors as indicated. For cycloheximide chase, cells were pretreated 16 h with 0.1% Vehicle or 10 μM inhibitors, followed by 20 ng/ml cycloheximide (Sigma) and whole cell extracts collected for each time point. […] Scanning densitometry was performed on immunoblots using Image J software. For cell cycle analysis, cells were treated with 0.1% Vehicle or 10 μM inhibitors for 16 h. 1×10^6 cells were fixed in 70% ethanol for 2 h, treated with 200 μg/ml RNase A (Invitrogen) for 30 minutes, and stained with 20 μg/ml Propidium Iodine (Sigma). All samples were assayed in triplicates. Signal was detected using the Becton Dickson LSRII flow cytometer and cell cycle profiles were analyzed with FloJo.

MDM2 = biological target: T4, MDM2 (Homo sapiens, UniProt Q00987); experiment: MDM2 p53 in vitro ubiquitylation counter-screen; type: biochemical; conditions: 50 μM inhibitor
T4 construct: purchased Boston Biochem
Procedure: p53 ubiquitylation was carried out with the p53 Ubiquitylation Kit (Boston Biochem) following manufacturers protocol. Immunoblotting was performed using mouse monoclonal p53 (Santa Cruz) and rabbit polyclonal MDM2 (Santa Cruz).

T4 sequence (Q00987 whole entry, species assumed): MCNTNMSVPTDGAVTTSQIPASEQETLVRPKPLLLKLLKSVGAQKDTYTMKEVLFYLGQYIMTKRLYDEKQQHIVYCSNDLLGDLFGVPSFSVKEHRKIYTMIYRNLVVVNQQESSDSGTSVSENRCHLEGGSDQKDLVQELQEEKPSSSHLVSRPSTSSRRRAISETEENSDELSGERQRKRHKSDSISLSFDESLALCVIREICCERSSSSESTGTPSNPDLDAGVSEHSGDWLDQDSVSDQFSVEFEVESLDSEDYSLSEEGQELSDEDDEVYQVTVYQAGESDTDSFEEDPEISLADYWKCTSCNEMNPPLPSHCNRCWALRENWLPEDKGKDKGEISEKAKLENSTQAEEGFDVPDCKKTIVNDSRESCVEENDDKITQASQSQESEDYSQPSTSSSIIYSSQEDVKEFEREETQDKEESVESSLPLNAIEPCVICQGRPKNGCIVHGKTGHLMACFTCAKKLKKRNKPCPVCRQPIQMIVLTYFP
T1 sequence (Q13309 whole entry): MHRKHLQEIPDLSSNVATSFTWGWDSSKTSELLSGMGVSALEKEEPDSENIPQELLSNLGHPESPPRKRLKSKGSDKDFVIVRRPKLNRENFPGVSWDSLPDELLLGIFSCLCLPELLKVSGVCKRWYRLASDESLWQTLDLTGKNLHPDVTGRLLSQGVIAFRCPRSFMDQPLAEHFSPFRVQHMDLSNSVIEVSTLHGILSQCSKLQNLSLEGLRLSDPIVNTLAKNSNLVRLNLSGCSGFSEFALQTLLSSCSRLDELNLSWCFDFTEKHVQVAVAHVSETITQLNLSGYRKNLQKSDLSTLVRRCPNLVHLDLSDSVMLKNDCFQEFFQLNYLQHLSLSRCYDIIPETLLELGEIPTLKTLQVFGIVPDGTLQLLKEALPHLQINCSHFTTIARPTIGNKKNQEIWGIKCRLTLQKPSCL
T1 sequence (P61024 whole entry Q52L): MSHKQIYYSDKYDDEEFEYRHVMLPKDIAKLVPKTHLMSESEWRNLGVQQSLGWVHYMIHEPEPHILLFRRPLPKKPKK
T1 sequence (P63208 whole entry partner): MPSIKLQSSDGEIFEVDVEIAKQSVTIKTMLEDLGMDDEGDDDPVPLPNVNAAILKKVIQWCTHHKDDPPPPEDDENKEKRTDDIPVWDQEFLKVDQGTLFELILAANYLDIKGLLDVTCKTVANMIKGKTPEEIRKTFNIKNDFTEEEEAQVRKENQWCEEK
T1 sequence (Q13616 whole entry partner): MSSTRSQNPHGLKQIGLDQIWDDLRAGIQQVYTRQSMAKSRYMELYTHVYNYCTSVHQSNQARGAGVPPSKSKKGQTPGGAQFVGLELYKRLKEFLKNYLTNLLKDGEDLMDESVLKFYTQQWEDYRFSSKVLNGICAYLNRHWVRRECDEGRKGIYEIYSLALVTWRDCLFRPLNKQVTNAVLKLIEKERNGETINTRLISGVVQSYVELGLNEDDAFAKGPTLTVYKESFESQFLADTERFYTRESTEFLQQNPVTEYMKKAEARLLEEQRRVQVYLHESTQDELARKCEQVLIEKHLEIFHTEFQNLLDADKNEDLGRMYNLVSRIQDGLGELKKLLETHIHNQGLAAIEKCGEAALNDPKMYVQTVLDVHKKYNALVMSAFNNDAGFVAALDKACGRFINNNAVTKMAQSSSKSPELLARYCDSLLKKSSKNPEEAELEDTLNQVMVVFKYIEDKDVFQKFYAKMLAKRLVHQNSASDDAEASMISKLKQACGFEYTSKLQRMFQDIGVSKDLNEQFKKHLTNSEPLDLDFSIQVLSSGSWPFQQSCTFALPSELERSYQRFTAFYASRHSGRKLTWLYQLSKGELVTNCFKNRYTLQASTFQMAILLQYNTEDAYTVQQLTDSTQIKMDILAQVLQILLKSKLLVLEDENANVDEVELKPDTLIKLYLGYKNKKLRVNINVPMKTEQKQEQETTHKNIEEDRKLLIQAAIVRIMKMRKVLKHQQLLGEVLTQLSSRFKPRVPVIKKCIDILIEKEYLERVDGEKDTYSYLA
T1 sequence (P62877 whole entry partner): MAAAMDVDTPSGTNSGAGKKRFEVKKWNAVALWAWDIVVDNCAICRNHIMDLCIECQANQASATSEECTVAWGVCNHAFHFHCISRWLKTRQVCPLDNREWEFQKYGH
T2 sequence (Q13309 whole entry): as the sequence (Q13309 whole entry) above
T2 sequence (P61024 whole entry): as the sequence (P61024 whole entry Q52L) above, with L52Q counted along it
T2 sequence (P63208 whole entry partner): as the sequence (P63208 whole entry partner) above
T2 sequence (Q13616 whole entry partner): as the sequence (Q13616 whole entry partner) above
T2 sequence (P62877 whole entry partner): as the sequence (P62877 whole entry partner) above

| SMILES | Inhibition of p27 ubiquitylation with Q52L-Cks1 (Q52L-Cks1 mutant) | Inhibition of Skp2-mediated p27 ubiquitylation (SCF-Skp2 (Skp2-Cks1)) | CyclinE/CDK2 activity (phospho-T187 p27) (CyclinE/CDK2) | β-TrCP activity (PDCD4 poly-ubiquitylation) (SCF-βTrCP) | S phase cells (501 Mel cells) | MDM2 activity (p53 poly-ubiquitylation) (MDM2) |
| --- | --- | --- | --- | --- | --- | --- |
| O=C(O)COc1ccc(Br)cc1C=C1SC(=S)N(Cc2cccnc2)C1=O [Compound C1] | inactive | active | not blocked | not blocked | a decrease in S phase cells | not blocked |
| COC(=O)C1=C(C)N(c2ccc(Br)cc2)C(=O)C1=Cc1ccccc1O [Compound C2] | strongly inhibited | strongly inhibited | not blocked | not blocked | a decrease in S phase cells | not blocked |
| O=C(O)COc1ccc(C=C2SC(=O)N(CC(=O)c3ccc(Cl)cc3)C2=O)cc1 [Compound C16] | inactive | active | not blocked | not blocked | a decrease in S phase cells | not blocked |
| O=C(NN=Cc1cc(Br)cc(Br)c1O)C(=Cc1ccccc1O)NC(=O)c1ccccc1 [Compound C20] | strongly inhibited | strongly inhibited | not blocked | not blocked | a decrease in S phase cells | not blocked |
